Laboratory results: ChEMBL document CHEMBL1154363, “Heterocyclic 1,7-disubstituted indole sulfonamides are potent and selective human EP3 receptor antagonists” (Bioorg Med Chem Lett, 2009)
Calls of active or inactive are those of the source. No cut-off for these calls is given here.

Experiments:
[1] = molecular target: T1, Prostaglandin E2 receptor EP3 subtype (Homo sapiens) (UniProt P43115); assay: Antagonist activity at human EP3 receptor at 10 uM by FLIPR assay; type: functional; design: scale not given: the % may be the effect or the level left
T1 sequence (whole entry): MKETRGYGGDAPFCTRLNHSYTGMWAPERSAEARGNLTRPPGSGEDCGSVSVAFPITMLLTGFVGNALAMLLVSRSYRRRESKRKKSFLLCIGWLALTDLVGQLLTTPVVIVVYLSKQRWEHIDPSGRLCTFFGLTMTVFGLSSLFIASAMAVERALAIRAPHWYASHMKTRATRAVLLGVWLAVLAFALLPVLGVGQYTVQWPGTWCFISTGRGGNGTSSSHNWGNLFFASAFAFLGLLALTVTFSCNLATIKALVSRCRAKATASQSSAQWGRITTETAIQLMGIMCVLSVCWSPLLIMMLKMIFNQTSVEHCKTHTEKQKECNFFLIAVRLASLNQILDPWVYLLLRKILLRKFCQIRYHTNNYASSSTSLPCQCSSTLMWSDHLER

[2] = molecular target: T1, Prostaglandin E2 receptor EP3 subtype (Homo sapiens); assay: Antagonist activity at human EP3 receptor at 0.1 uM by FLIPR assay; type: functional; design: scale not given: the % may be the effect or the level left
[3] = molecular target: T1, Prostaglandin E2 receptor EP3 subtype (Homo sapiens); assay: Antagonist activity at human EP3 receptor at 1 uM by FLIPR assay; type: functional; design: scale not given: the % may be the effect or the level left
[4] = molecular target: T2, Prostaglandin E2 receptor EP3 subtype (Homo sapiens, UniProt P43115); assay: Displacement of [3H]PGE2 from human EP3 receptor
T2 sequence (P43115 whole entry): T1 sequence (whole entry)

[5] = molecular target: T3, Prostaglandin E2 receptor EP1 subtype (Homo sapiens, UniProt P34995); assay: Binding affinity to human EP1 receptor by radioligand displacement assay
T3 sequence (P34995 whole entry): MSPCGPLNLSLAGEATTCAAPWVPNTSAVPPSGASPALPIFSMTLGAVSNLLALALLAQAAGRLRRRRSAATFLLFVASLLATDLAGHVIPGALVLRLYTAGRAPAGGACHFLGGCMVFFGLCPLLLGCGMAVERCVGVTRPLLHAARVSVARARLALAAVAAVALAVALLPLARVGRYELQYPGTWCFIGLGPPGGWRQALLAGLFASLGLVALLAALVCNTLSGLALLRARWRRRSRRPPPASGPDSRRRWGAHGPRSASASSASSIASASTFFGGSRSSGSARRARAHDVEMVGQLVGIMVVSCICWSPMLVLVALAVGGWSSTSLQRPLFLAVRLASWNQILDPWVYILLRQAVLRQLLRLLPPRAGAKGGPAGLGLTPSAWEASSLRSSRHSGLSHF

[6] = system: Platelet; assay: Inhibition of PGE2/collagen-induced platelet aggregation rat platelets rich plasma; type: functional
[7] = Metabolic stability in human liver microsomes assessed as compound remaining after 30 mins; type: ADME, Microsome; details: read-out: Stability
[8] = Protein binding in plasma by HSA-HPLC method; type: ADME, cell-free; details: human, read-out: PB (converted)
[9] = molecular target: T1, Prostaglandin E2 receptor EP3 subtype (Homo sapiens); assay: Displacement of [3H]PGE2 from human EP3 receptor in presence of 10% human serum
[10] = system: Platelet; assay: Inhibition of PGE2/collagen-induced platelet aggregation human platelets rich plasma; type: functional
[11] = molecular target: Prostaglandin E2 receptor EP2 subtype (Homo sapiens, UniProt P43116); assay: Binding affinity to human EP2 receptor by radioligand displacement assay
Chain of Prostaglandin E2 receptor EP2 subtype (P43116 whole entry): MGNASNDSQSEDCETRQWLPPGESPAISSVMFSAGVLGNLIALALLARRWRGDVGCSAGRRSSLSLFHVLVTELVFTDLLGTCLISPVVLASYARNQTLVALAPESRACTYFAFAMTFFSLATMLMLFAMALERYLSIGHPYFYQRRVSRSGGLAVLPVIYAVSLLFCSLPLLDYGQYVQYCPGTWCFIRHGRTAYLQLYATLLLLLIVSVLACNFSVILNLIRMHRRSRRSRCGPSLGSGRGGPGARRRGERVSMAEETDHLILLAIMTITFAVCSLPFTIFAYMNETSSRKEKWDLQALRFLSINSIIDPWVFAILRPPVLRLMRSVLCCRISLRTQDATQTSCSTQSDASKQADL

[12] = Metabolic stability in rat liver microsomes assessed as compound remaining after 30 mins; type: ADME, Microsome; details: read-out: Stability
[13] = molecular target: T4, Prostaglandin E2 receptor EP4 subtype (Homo sapiens, UniProt P35408); assay: Binding affinity to human EP4 receptor by radioligand displacement assay
T4 sequence (P35408 whole entry): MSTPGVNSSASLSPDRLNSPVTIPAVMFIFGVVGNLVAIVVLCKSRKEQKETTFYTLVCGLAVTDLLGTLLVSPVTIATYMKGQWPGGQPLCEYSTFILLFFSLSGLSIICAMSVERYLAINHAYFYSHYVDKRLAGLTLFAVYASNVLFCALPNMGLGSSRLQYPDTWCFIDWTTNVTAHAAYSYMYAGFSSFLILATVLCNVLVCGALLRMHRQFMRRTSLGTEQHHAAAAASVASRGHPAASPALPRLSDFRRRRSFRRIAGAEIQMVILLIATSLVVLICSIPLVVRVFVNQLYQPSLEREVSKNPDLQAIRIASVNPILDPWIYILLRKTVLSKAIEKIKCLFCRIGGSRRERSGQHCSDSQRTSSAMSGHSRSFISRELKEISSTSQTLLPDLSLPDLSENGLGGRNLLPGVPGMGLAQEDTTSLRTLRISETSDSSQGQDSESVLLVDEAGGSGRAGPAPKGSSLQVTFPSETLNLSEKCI

[14] = molecular target: Prostacyclin receptor (Homo sapiens, UniProt P43119); assay: Binding affinity to human IP receptor by radioligand displacement assay
Chain of Prostacyclin receptor (P43119 whole entry): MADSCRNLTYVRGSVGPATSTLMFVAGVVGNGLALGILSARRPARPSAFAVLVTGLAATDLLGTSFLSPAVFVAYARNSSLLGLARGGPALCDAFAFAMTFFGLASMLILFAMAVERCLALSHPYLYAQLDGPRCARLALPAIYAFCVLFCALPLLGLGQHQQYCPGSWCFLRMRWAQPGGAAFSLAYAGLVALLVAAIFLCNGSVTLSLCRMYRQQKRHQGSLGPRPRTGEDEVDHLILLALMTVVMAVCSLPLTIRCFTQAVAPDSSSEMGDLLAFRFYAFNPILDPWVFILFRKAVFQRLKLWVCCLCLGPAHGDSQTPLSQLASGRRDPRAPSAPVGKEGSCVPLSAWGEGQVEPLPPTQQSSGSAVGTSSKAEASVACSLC

[15] = molecular target: T5, Prostaglandin F2-alpha receptor (Homo sapiens, UniProt P43088); assay: Binding affinity to human FP receptor by radioligand displacement assay
T5 sequence (P43088 whole entry): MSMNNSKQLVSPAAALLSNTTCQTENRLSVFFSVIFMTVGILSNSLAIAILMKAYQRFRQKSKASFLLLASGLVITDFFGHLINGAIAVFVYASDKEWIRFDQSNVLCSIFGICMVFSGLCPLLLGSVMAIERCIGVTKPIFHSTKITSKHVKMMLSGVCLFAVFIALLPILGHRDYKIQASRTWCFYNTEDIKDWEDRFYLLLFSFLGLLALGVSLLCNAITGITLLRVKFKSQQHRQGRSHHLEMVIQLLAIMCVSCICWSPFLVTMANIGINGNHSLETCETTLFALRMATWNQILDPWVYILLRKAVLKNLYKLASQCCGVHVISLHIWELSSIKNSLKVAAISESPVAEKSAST

[16] = molecular target: T1, Prostaglandin E2 receptor EP3 subtype (Homo sapiens); assay: Full displacement of [3H]PGE2 from human EP3 receptor at 20 uM
[17] = molecular target: T4, Prostaglandin E2 receptor EP4 subtype; assay: Activity at EP4 receptor at 10 uM by FLIPR assay
[18] = molecular target: T6, Thromboxane A2 receptor (Homo sapiens) (UniProt P21731); assay: Activity at TP receptor at 10 uM by FLIPR assay
T6 sequence (whole entry): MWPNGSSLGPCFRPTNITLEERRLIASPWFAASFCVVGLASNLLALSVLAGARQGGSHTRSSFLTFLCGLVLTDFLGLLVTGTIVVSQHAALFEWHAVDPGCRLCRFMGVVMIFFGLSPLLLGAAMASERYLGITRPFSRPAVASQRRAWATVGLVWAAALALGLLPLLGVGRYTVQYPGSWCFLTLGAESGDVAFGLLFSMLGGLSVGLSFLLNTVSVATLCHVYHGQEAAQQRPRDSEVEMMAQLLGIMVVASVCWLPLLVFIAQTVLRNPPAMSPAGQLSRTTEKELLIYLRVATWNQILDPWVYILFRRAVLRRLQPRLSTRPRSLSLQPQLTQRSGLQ

[19] = molecular target: T7, Prostaglandin E2 receptor EP1 subtype (Homo sapiens) (UniProt P34995); assay: Activity at EP1 receptor at 0.1 uM by FLIPR assay
T7 sequence (whole entry): T3 sequence (P34995 whole entry)

[20] = molecular target: T6, Thromboxane A2 receptor (Homo sapiens); assay: Activity at TP receptor at 1 uM by FLIPR assay
[21] = molecular target: T7, Prostaglandin E2 receptor EP1 subtype (Homo sapiens); assay: Activity at EP1 receptor at 1 uM by FLIPR assay
[22] = molecular target: T4, Prostaglandin E2 receptor EP4 subtype; assay: Activity at EP4 receptor at 1 uM by FLIPR assay
[23] = molecular target: T4, Prostaglandin E2 receptor EP4 subtype; assay: Activity at EP4 receptor at 0.1 uM by FLIPR assay
[24] = molecular target: T5, Prostaglandin F2-alpha receptor; assay: Activity at FP receptor at 1 uM by FLIPR assay
[25] = molecular target: T5, Prostaglandin F2-alpha receptor; assay: Activity at FP receptor at 0.1 uM by FLIPR assay
[26] = molecular target: T6, Thromboxane A2 receptor (Homo sapiens); assay: Activity at TP receptor at 0.1 uM by FLIPR assay
[27] = molecular target: T5, Prostaglandin F2-alpha receptor; assay: Activity at FP receptor at 10 uM by FLIPR assay
[28] = molecular target: T7, Prostaglandin E2 receptor EP1 subtype (Homo sapiens); assay: Activity at EP1 receptor at 10 uM by FLIPR assay

Cc1cn(Cc2ccc3c(c2)OCCO3)c2c(-c3nnc(NS(=O)(=O)c4ccc(F)cc4)o3)cc(F)cc12
Activity [1]: 48% | Activity [2]: 11%

COc1ccc(Cn2cc(C)c3cc(F)cc(-c4nnc(NS(=O)(=O)c5ccc(F)c(F)c5)o4)c32)cc1
Activity [2]: 35% | Activity [3]: 99%

COc1cccc(Cn2cc(C)c3cc(F)cc(-c4nnc(NS(=O)(=O)c5ccc(F)cc5)o4)c32)c1
Activity [1]: 99% | Activity [2]: 62%

Cc1cn(Cc2ccc(Cl)cc2Cl)c2c(-c3cc(NS(=O)(=O)c4ccc(F)c(F)c4)no3)cc(F)cc12
IC50 [4]: 1 nM | IC50 [5]: > 20000 nM | IC50 [6]: 3850 nM | remaining at 0.5 h [7]: 46.8% | fraction unbound [8]: 0.016 | fold change (FC) [9]: 12 | IC50 [10]: 785 nM | IC50 [11]: 19800 nM | remaining at 0.5 h [12]: 51% | IC50 [13]: 18600 nM | IC50 [14]: > 20000 nM | IC50 [15]: 600 nM

Cc1cn(Cc2ccc(Cl)cc2Cl)c2c(-c3nnc(NC(=O)c4ccc(Cl)cc4Cl)o3)cc(F)cc12
IC50 [4]: 1320 nM | fold change (FC) [9]: 1 | Activity [16]: inactive

Cc1cn(Cc2ccc(Cl)cc2Cl)c2c(-c3nnc(NS(=O)(=O)c4ccc(Cl)c(Cl)c4)o3)cc(F)cc12
IC50 [4]: 4 nM | IC50 [6]: 2860 nM | Activity [17]: -7% | remaining at 0.5 h [7]: 72.1% | Activity [18]: 56% | Activity [19]: -2% | fraction unbound [8]: 0.028 | fold change (FC) [9]: 3.5 | Activity [20]: 0% | Activity [21]: 16% | remaining at 0.5 h [12]: 44.8% | Activity [22]: -22% | Activity [23]: -26% | Activity [24]: -2% | Activity [25]: -15% | Activity [26]: 3% | Activity [27]: -1% | Activity [28]: 100%
